These are literature values, as cited in US11389451B2, “Metolazone emulsion formulation” (ACADEMIC PHARMACEUTICALS, INC., priority 2017, dated 2022).

Molecules are shown by their SMILES.

The conditions of the data set: background statement.

`Cc1ccccc1N1C(=O)c2cc(S(N)(=O)=O)c(Cl)cc2NC1C` (centres unmarked) [Metolazone]: the solubility in lipids result is given as “moderate to high” and the solubility in water result is recorded as “low”.
